According to patent US9757464B2, “Pharmaceutical compositions of dextran polymer derivatives” (Bend Research, Inc., priority 2009, dated 2017):

What was measured:
[1] = Tg of amorphous active agent by DSC; format: physicochemical
[2] = Syringe dissolution test (in vitro dissolution performance); format: physicochemical; details: pH 7.4 buffer; for Concentration: 50 μg/mL dosed
Description: This solution was adjusted to pH 7.42 by adding sufficient 0.1 N HCl. […] After adding the dispersion and the buffer to the syringe, the syringe was periodically inverted to mix the components in the syringe. The syringe was fitted with a 0.45 μm Supor PES syringe filter (manufacturer, city, state). After 5 minutes, 1 mL of fluid was pushed through the filter into a 2-mL centrifuge tube. A 0.5-mL aliquot of methanol was then added to the centrifuge tube, which was then inverted to mix the contents in the tube, followed by centrifugation at 13,000 rpm for 1 minute. The supernatant was transferred to another centrifuge tube. This procedure was repeated for all timepoints. Samples were frozen in liquid nitrogen and place on a lyophilizer for 3 days to remove all liquids.

Structure (SMILES) | Tg of amorphous active agent [1] [°C] | Concentration ([2]; 0 min) [ng/mL] | Concentration ([2]; 5 min) [ng/mL] | Concentration ([2]; 15 min) [ng/mL] | Concentration ([2]; 30 min) [ng/mL] | Concentration ([2]; 90 min) [ng/mL] | Concentration ([2]; 180 min) [ng/mL] | Cmax ([2]; syringe dissolution test) [ng/mL]
CCC(=O)O[C@]1(C(=O)SCF)[C@H](C)C[C@H]2[C@@H]3C[C@H](F)C4=CC(=O)C=C[C@]4(C)[C@@]3(F)[C@@H](O)C[C@@]21C [Active Agent 1, S-(fluoromethyl) 6α,9-difluoro-11β,17-dihydroxy-16α-methyl-3-oxoandrosta-1,4-diene-17β-carbothioate, 17-propionate] | 84 |  |  |  |  |  |  | 
CCC(=O)O[C@]1(C(=O)SCF)[C@H](C)C[C@H]2[C@@H]3C[C@H](F)C4=CC(=O)C=C[C@]4(C)[C@@]3(F)[C@@H](O)C[C@@]21C [Control 1] |  | 0 | 250 | 300 | 100 | 240 | 370 | 370
